Values of other authors in patent US20190290552A1, “ETHANOLIC COMPOSITIONS COMPRISING PERFUME” (Conopco, Inc., d/b/a UNILEVER, priority 2016, published 2019).

Details: taken from the Good Scents website

LogKow	SMILES
3.6	CC(C=O)Cc1ccc(C(C)(C)C)cc1 (centres unmarked) [Lilial]
2.7	C=CC(C)(O)CCC=C(C)C (centres unmarked) [Linalool]
3.7	C=CC(C)(O)CCC=C(C)CC (centres unmarked) [3,7-Dimethyl-1,6-nonadien-3-ol]
4.1	C=CC(C)(CCC=C(C)C)OC(=O)CCC (centres unmarked) [Linalyl Butyrate]
4.8	CC1=CC[C@]2(C)CCCC(C)(C)[C@@]23C[C@@H]13 [Thujopsene]
3.4	C=C(C)[C@H]1CC=C(C)CC1 [Limonene]
2.7	CCCCCC1C(=O)CCC1CC(=O)OC (centres unmarked) [Methyl dihydrojasmonate]
4.7	O=C1CCCCCCCCCCCCO1 [Oxacyclotetradecan-2-one]
